Results taken from patent publication US20260142006A1, “APPARATUS AND METHODS FOR DETERMINING SENSITIVITY TO OSIMERTINIB” (Zephyr AI, Inc., priority 2022, published 2026).

Key:
NSCLC = assay: overall survival of osimertinib-treated NSCLC patients (AACR Project GENIE cohort), predicted sensitive vs. less sensitive; type: in vivo, human; details: 334 osimertinib-treated patients
From the text: FIG. 8 depicts a Kaplan-Meier plot showing corresponding overall survival (OS) measurements of patients predicted, according to methods of the present disclosure, to be sensitive vs. insensitive to ismertinib. NSCLC patients predicted to be sensitive experienced a 35-month increased median OS than the predicted less sensitive group (log-rank test p-value<10-5; HR=1.57 (1.43-1.78, 95% CI)).
A clinicogenomics cohort from AACR Project GENIE, which included 334 patients treated with osimertinib, was used to validate the predictive ability of the methods disclosed herein. Data obtained in real-world settings were used to assign drug sensitivity predictions to individual patients in a RWD cohort of NSCLC patients treated with osimertinib. FIG. 8, a Kaplan-Meier plot, depicts overall survival (OS) measurements corresponding to patients predicted to be sensitive vs. insensitive. NSCLC patients predicted to be sensitive experienced a 35-month increased median OS than the NSCLC patients predicted to be less sensitive (log-rank test p-value<10-5; HR=1.57 (1.43-1.78, 95% CI)).

cancer cell lines = assay: area under the drug response curve (AUC) of cancer cell lines exposed to osimertinib; type: cell-based; details: AUC of 1 = growth equal to growth without osimertinib
From the text: FIG. 4D depicts a boxplot of area under the drug response curve values for cell lines partitioned into a first group (sensitive) and the second group (non-sensitive) of cancer cell lines, by a machine learning model disclosed herein.
FIG. 4D depicts a graph of a box and whisker plot of area under the drug response curve (AUC) values for the first group (sensitive) and the second group (non-sensitive) of cancer cell lines. […] Furthermore, instead of generating the machine learning model wherein the model learns a point estimate for each of the parameters of the partitioning matrix (e.g., two or more genes), the machine learning model may be generated in a Bayesian context, wherein the machine learning model learns the posterior parameter distribution for the parameters of the partitioning matrix, the posterior parameter distribution may be approximately gaussian. For example, when the parameters of the partitioning matrix include 7 distinct genes, the machine learning model may learn the posterior parameter distribution for 8 different parameters (e.g., 7 genes plus an intercept term). In some embodiments, the posterior parameter distribution may have a confidence region of about 90%. The graphical representation of the confidence region of the posterior parameter distribution may depict ellipse enclosing a high-density region.

NSCLC tumor PDX models = assay: tumor response (mRECIST) of treatment-naïve NSCLC patient-derived xenograft (PDX) models in mice; type: in vivo; details: 25 mg/kg/day for 3 weeks, NOD/SCID or BALB/c nude mice
From the text: FIG. 9 depicts a method for further validation of sensitivity predictions using patient-dervied xenograft (PDX) models (HuBase™, CrownBio®). Treatment naïve PDX tumors were subcutaneously implanted into female non-obese diabetic/severe combined immunodeficient (NOD/SCID) or BALB/c nude mice in triplicate for a total of 96 mice (n=48 treated; 48 vehicle-treated controls). Mice were assigned labels. After implanted tumors reached a size of 200 mm^3, mice were randomized into treatment and control groups. Treated mice were dosed with 25 mg/kg/day of osimertinib for 3 weeks. Changes in tumor volume were calculated. For each PDX model, tumor growth for treatment groups and control groups was assessed.
To validate the predictions of tumor sensitivity/insensitivity, as described above, data were acquired using treatment-naïve NSCLC tumor (patient-derived xenograft) PDX models available via HuBase™ (CrownBio®, an online database offering complete genomic annotation of the PDX models).
The current FDA label for osimertinib (FIG. 7) was used to assign PDX tumors to “FDA ON” or “FDA OFF” label groups based on the presence or absence of DNA alterations indicated for this drug (i.e., L858R mutation, T790M mutation, or exon 19 deletion). PDX tumors were also assigned label groups based on sensitivity predictions, as described above. Tumors labeled “Zephyr ON” included those that were predicted to be osimertinib-sensitive and samples labeled “Zephyr OFF” include those predicted to be osimertinib-insensitive. PDX models were then divided into four cohorts: FDA ON/ZEPHYR ON; FDA OFF/ZEPHYR ON; FDA ON/ZEPHYR OFF; and FDA OFF/ZEPHYR OFF.
Treatment naïve PDX tumors were subcutaneously implanted into female NOD/SCID or BALB/c nude mice in triplicate for a total of 96 mice (n=48 treated; 48 vehicle-treated controls). After implanted tumors reached a size of 200 mm^3, mice were randomized into treatment and control groups. Treated mice were dosed with 25 mg/kg/day of osimertinib for 3 weeks. Changes in tumor volume were calculated as previously described, e.g., in Gao et al., Nat. Med. 21, 1318-1325 (2015). For each PDX model, tumor growth for treatment groups and control groups (vehicle only) was assessed.
This final cohort represents an expansion of the patient population that can be successfully treated with osimertinib that is not captured by the existing FDA label.

C=CC(=O)Nc1cc(Nc2nccc(-c3cn(C)c4ccccc34)n2)c(OC)cc1N(C)CCN(C)C [osimertinib]
increase in median overall survival (OS), predicted sensitive vs. predicted less sensitive (NSCLC; real-world data, log-rank test p-value<10-5): 35 month
hazard ratio (HR) for overall survival (NSCLC; 95% CI in brackets): 1.57 (1.43-1.78, 95% CI)
average AUC (area under the drug response curve) (cancer cell lines; first group (predicted sensitive) of cancer cell lines): about 0.9
average AUC (area under the drug response curve) (cancer cell lines; second group (predicted non-sensitive) of cancer cell lines): about 0.95
tumor response by mRECIST (NSCLC tumor PDX models; FDA OFF/ZEPHYR OFF cohort): disease progression
tumor response by mRECIST (NSCLC tumor PDX models; FDA OFF/ZEPHYR ON cohort (no on-label EGFR alteration, predicted sensitive)): partial to complete response
tumor response by mRECIST (NSCLC tumor PDX models; FDA ON/ZEPHYR OFF cohort): a mix of complete responses and disease progression
tumor response by mRECIST (NSCLC tumor PDX models; FDA ON/ZEPHYR ON cohort): complete response
